# Tests used:
# AT1 (h) = AT1 (h) (Homo sapiens, UniProt P30556); assay: competitive radioligand binding assay, AT1 (h) (antagonist radioligand)
# [1] = target: T1, rat AR ligand-binding domain (Rattus norvegicus, UniProt P15207); assay: Competitive-binding assay vs AR ligand Fluormone (PolarScreen Androgen Receptor Competitor Assay, fluorescence polarization)
# T1 construct: purchased Invitrogen PV4293
# Description: Binding to rat AR ligand-binding domain was measured in competition with fluorescently labeled AR ligand Fluormone™ using a commercial assay kit and fluorescence polarization as a read-out.
# FIG. 3. Competitive-binding assay vs AR ligand Fluormone™ (PolarScreen™ Androgen Receptor Competitor Assay, Invitrogen, cat. #PV4293).
# Cl− channel (GABA-gated) = assay: competitive radioligand binding assay, Cl− channel (GABA-gated) (antagonist radioligand); settings: 10 μM
# [2] = system: Ca2+ channel (L, diltiazem site) (benzothiazepines); assay: competitive radioligand binding assay, Ca2+ channel (L, diltiazem site) (benzothiazepines) (antagonist radioligand); settings: 10 μM
# [3] = system: Ca2+channel (L, verapamil site) (phenylalkylamine); assay: competitive radioligand binding assay, Ca2+channel (L, verapamil site) (phenylalkylamine) (antagonist radioligand); settings: 10 μM
# Y (non-selective) = assay: competitive radioligand binding assay, Y (non-selective) (agonist radioligand); settings: 10 μM
# β1 (h) = β1 (h) (Homo sapiens, UniProt P08588); assay: competitive radioligand binding assay, β1 (h) (agonist radioligand)
# NK2 (h) = NK2 (h) (Homo sapiens, UniProt P21452); assay: competitive radioligand binding assay, NK2 (h) (agonist radioligand)
# A3 (h) = A3 (h) (Homo sapiens, UniProt P0DMS8); assay: competitive radioligand binding assay, A3 (h) (agonist radioligand)
# ETB (h) = ETB (h) (Homo sapiens, UniProt P24530); assay: competitive radioligand binding assay, ETB (h) (agonist radioligand)
# CYP 3A = CYP 3A induction assay; assay type: in vitro ADME
# α1 (non-selective) = assay: competitive radioligand binding assay, α1 (non-selective (antagonist radioligand)); settings: 10 μM
# ER (non-selective) (h) = assay: competitive radioligand binding assay, ER (non-selective) (h) (agonist radioligand); design: species or system human; settings: 10 μM
# [4] = Distribution in plasma, brain and prostate after single IV administration in rats; assay type: in vivo; settings: single IV 2 mg/kg
# BZD (central) = assay: competitive radioligand binding assay, BZD (central) (agonist radioligand); settings: 10 μM
# NK3 (h) = NK3 (h) (Homo sapiens, UniProt P29371); assay: competitive radioligand binding assay, NK3 (h) (antagonist radioligand)
# D4.4 (h) = D4.4 (h) (Homo sapiens, UniProt P21917); assay: competitive radioligand binding assay, D4.4 (h) (antagonist radioligand)
# LnCAP cells = assay: Inhibition of DHT-stimulated proliferation of LnCAP cells; assay type: cell-based, human
# Description: The expression of PSA was measured in the culture medium 24 hours thereafter (FIG. 1). […] The LnCAP cells were cultured for a further 5 days and the number of viable cells was then calculated.
# FIG. 2. Inhibition of DHT-stimulated proliferation of LnCAP cells.
# H2 (h) = H2 (h) (Homo sapiens, UniProt P25021); assay: competitive radioligand binding assay, H2 (h) (antagonist radioligand)
# MC4 (h) = MC4 (h) (Homo sapiens, UniProt P32245); assay: competitive radioligand binding assay, MC4 (h) (agonist radioligand)
# B1 (h) = B1 (h) (Homo sapiens, UniProt P46663); assay: competitive radioligand binding assay, B1 (h) (agonist radioligand)
# PCP = assay: competitive radioligand binding assay, PCP (antagonist radioligand); settings: 10 μM
# A2A (h) = A2A (h) (Homo sapiens, UniProt P29274); assay: competitive radioligand binding assay, A2A (h) (agonist radioligand)
# D1 (h) = D1 (h) (Homo sapiens, UniProt P21728); assay: competitive radioligand binding assay, D1 (h) (antagonist radioligand)
# [5] = system: Ca2+ channel (L, dihydropyridine site); assay: competitive radioligand binding assay, Ca2+ channel (L, dihydropyridine site) (antagonist radioligand); settings: 10 μM
# CCK2 (CCKB) (h) = CCK2 (CCKB) (h) (Homo sapiens, UniProt P32239); assay: competitive radioligand binding assay, CCK2 (CCKB) (h) (agonist radioligand)
# [6] = target: choline transporter (CHT1) (h) (Homo sapiens, UniProt Q9GZV3); assay: competitive radioligand binding assay, choline transporter (CHT1) (h) (antagonist radioligand)
# TRH1 (h) = TRH1 (h) (Homo sapiens, UniProt P34981); assay: competitive radioligand binding assay, TRH1 (h) (agonist radioligand)
# CCK1 (CCKA) (h) = CCK1 (CCKA) (h) (Homo sapiens, UniProt P32238); assay: competitive radioligand binding assay, CCK1 (CCKA) (h) (agonist radioligand)
# AR (h) = assay: competitive radioligand binding assay, AR (h) (agonist radioligand); design: species or system human; settings: 10 μM
# dopamine transporter (h) = dopamine transporter (h) (Homo sapiens, UniProt Q01959); assay: competitive radioligand binding assay, dopamine transporter (h) (antagonist radioligand)
# N neuronal α4β2 (h) = N neuronal α4β2 (h) (Homo sapiens, UniProt P17787+P43681); assay: competitive radioligand binding assay, N neuronal α4β2 (h) (agonist radioligand)
# EP2 (h) = EP2 (h) (Homo sapiens, UniProt P43116); assay: competitive radioligand binding assay, EP2 (h) (agonist radioligand)
# NK1 (h) = NK1 (h) (Homo sapiens, UniProt P25103); assay: competitive radioligand binding assay, NK1 (h) (agonist radioligand)
# CB2 (h) = CB2 (h) (Homo sapiens, UniProt P34972); assay: competitive radioligand binding assay, CB2 (h) (agonist radioligand)
# V1 a (h) = V1 a (h) (Homo sapiens, UniProt P37288); assay: competitive radioligand binding assay, V1 a (h) (agonist radioligand)
# opioid (non-selective) = assay: competitive radioligand binding assay, opioid (non-selective) (antagonist radioligand); settings: 10 μM
smiles,measurement,setting,value
"CNC(=O)c1ccc(N2C(=S)N(c3ccc(C#N)c(C(F)(F)F)c3)C(=O)[C@]23CCOC3)cc1F [(R)-1, 4-[(R)-3-(4-cyano-3-trifluoromethyl-phenyl)-4-oxo-2-thioxo-7-oxa-1,3-diaza-spiro[4.4]non-1-yl]-2-fluoro-N-methyl-benzamide]",inhibition at 10 µM,AT1 (h),0.5%
same,IC50,"[1]; rat AR ligand-binding domain, fluorescence polarization (FIG. 3)",7.9 µM
same,fold more efficient binding than Ia,[1]; versus Ia,around 2.1 fold
same,% Inhibition,Cl− channel (GABA-gated),42.4%
same,% Inhibition,[2],−23.6%
same,% Inhibition,[3],4.0%
same,% Inhibition,Y (non-selective),−16.4%
same,inhibition at 10 µM,β1 (h),1.8%
same,inhibition at 10 µM,NK2 (h),-8.7%
same,inhibition at 10 µM,A3 (h),-4.9%
same,inhibition at 10 µM,ETB (h),-1.7%
same,"Positive control, % (CYP 3A induction)",CYP 3A; Concentration 1 μM,0.0 ± 2.0%
same,"Positive control, % (CYP 3A induction)",CYP 3A; Concentration 10 μM,42.0 ± 6.1%
same,% Inhibition,α1 (non-selective),0.7%
same,% Inhibition,ER (non-selective) (h),−7.6%
same,concentration at 30 min,"[4]; rat, plasma, 30 min, Mean ± SD, n = 3",746 ± 104 ng/mL
same,concentration at 120 min,"[4]; rat, plasma, 120 min, Mean ± SD, n = 3",522 ± 57 ng/mL
same,Brain/Plasma,[4]; 30 min,0.19 ± 0.02
same,Prostate/Plasma,[4]; 30 min,1.55 ± 0.08
same,Brain,"[4]; 30 min, Mean ± SD, n = 3",145 ± 22 ng/g
same,Plasma,"[4]; 30 min, Mean ± SD, n = 3",746 ± 104 ng/mL
same,Prostate,"[4]; 30 min, Mean ± SD, n = 3",1159 ± 164 ng/g
same,Brain/Plasma,[4]; 120 min,0.17 ± 0.35
same,Prostate/Plasma,[4]; 120 min,1.20 ± 0.36
same,Brain,"[4]; 120 min, Mean ± SD, n = 3",89 ± 10 ng/g
same,Plasma,"[4]; 120 min, Mean ± SD, n = 3",522 ± 57 ng/mL
same,Prostate,"[4]; 120 min, Mean ± SD, n = 3",625 ± 108 ng/g
same,% Inhibition,BZD (central),−16.6%
same,inhibition at 10 µM,NK3 (h),-4.5%
same,inhibition at 10 µM,D4.4 (h),-4.7%
same,IC50,"LnCAP cells; Homo sapiens, LNCaP, 120 h, read-out: IC50, inhibition of DHT-induced cell proliferation",0.03 µM
same,fold more efficient than III in inhibiting DHT-induced cell proliferation,"LnCAP cells; LnCAP cells, versus III",around 8 fold
same,fold more efficient than Ia in inhibiting DHT-induced cell proliferation,"LnCAP cells; LnCAP cells, versus Ia",around 6 fold
same,inhibition at 10 µM,H2 (h),-2.6%
same,inhibition at 10 µM,MC4 (h),-3.1%
same,inhibition at 10 µM,B1 (h),0.5%
same,% Inhibition,PCP,0.5%
same,inhibition at 10 µM,A2A (h),8.1%
same,inhibition at 10 µM,D1 (h),-2.4%
same,% Inhibition,[5],−2.5%
same,inhibition at 10 µM,CCK2 (CCKB) (h),-2.5%
same,inhibition at 10 µM,[6],9.7%
same,inhibition at 10 µM,TRH1 (h),3.4%
same,inhibition at 10 µM,CCK1 (CCKA) (h),10.6%
same,% Inhibition,AR (h),96.3%
same,inhibition at 10 µM,dopamine transporter (h),-0.3%
same,inhibition at 10 µM,N neuronal α4β2 (h),0.2%
same,inhibition at 10 µM,EP2 (h),0%
same,inhibition at 10 µM,NK1 (h),14.7%
same,inhibition at 10 µM,CB2 (h),9.1%
same,inhibition at 10 µM,V1 a (h),12.3%
same,% Inhibition,opioid (non-selective),19.3%

# From patent publication US9073874B2, “Cyclic N,N′-diarylthioureas and N,N′-diarylureas-androgen receptor antagonists, anticancer agent, method for preparation and use thereof” (priority 2010, dated 2015)
